Measurements: article PMC9189929, “Synthesis, Screening and Characterization of Novel Potent Arp2/3 Inhibitory Compounds Analogous to CK-666” (Frontiers in Pharmacology, 2022)
Converted amounts (≈) assume the structure as drawn.

Assays:
B16-F1 cells [1] = test: Wound healing (cell migration) of B16-F1 cells; format: cell-based, mouse
Description: For the wound healing, B16-F1 cells were seeded onto 8-well Ibidi dishes coated with laminin, and grown to confluence. Wounds in the cell monolayer were obtained by scratching the monolayer with a pipet tip. Detached cells were immediately washed away and new medium containing the various compounds was added. Cells were then used for videomicroscopy.
Videomicroscopy was performed on an inverted Axio Observer microscope (Zeiss) equipped with a Pecon Zeiss incubator XL multi S1 RED LS (Heating Unit XL S, Temp module, CO2 module, Heating Insert PS and CO2 cover), Definite focus module and a Hamamatsu camera C10600 Orca-R2. Phase contrast images were taken every 30 min for 24 h using the 10X/0.25 Plan-Apochromat air objective. For immunofluorescence, slides were observed and imaged with the 63X/1.4 Plan-Apochromat oil objective. Fluorophores were excited with the HBO 100 W lamp (Osram) installed in the HXP 120 Metal halide fluorescence light source (Zeiss).
(§1) Image analysis was performed in ImageJ or FIJI software. To measure wound healing, boundaries of the wound were drawn manually at different time points, then wound size was measured.

MCF10A cells = test: EdU incorporation / cell cycle progression screen in MCF10A cells; format: cell-based, human; conditions: for IC50: Homo sapiens, MCF-10A, 18 h treatment, rough values from Figure 1 graphs, read-out: IC50 (concentration required for 50% decrease of EdU-positive cells); for Outcome of EdU incorporation screen: 0.025 to 100 μM
Description: For cell cycle progression using EdU, MCF10A cells were seeded in 384-well plates at a density of 800 cells per well. […] EdU from kit C10337 (ThermoFischer Scientific, Waltham, MA, United States) was then added to the cells at 10 μM and incubated for 2.5 h. Cells were fixed in 4% paraformaldehyde for 30 min at room temperature. Click-iT reaction was performed for 1 h at room temperature, protected from light, with 5 µM Alexa Fluor 488 azide in (100 mM Tris, 1 mM CuSO4, 50 mM Ascorbic Acid, pH 8.5). Nuclei were counterstained with Hoechst 33,342 (Thermo Fisher Scientific). Imaging and analysis were performed using the ImageXpress Micro XL High-Content Screening System (Molecular Devices LLC, San Jose, CA, United States). IC50 values were determined by sigmoidal curve fitting using GraphPad Prism six software.

fish keratocytes = tested on: fish keratocytes; design: method as in Nolen et al., 2009; conditions: ref Nolen et al., 2009; cited from earlier work
sea urchin embryos [2] = tested on: sea urchin embryos; design: method as in Sepúlveda-ramírez et al., 2018; conditions: 100 μM; ref Sepúlveda-ramírez et al., 2018; cited from earlier work
sea urchin embryos [3] = test: Sea urchin embryo development assay; format: in vivo, Paracentrotus lividus
Description: The procedure was described in detail in [Semenova et al., 2018]. Briefly, adult sea urchins, Paracentrotus lividus L (Echinidae), were collected from the Mediterranean Sea on the Cyprus coast and kept in an aerated seawater tank. Gametes were obtained by intracoelomic injection of 0.5 M KCl. Eggs were washed with filtered seawater and fertilized by adding drops of diluted sperm. Embryos were cultured at room temperature under gentle agitation with a motor-driven plastic paddle (60 rpm) in filtered seawater. […] For treatment with test compounds, 5 ml aliquots of embryo suspension were transferred to six-well plates and incubated at a concentration of 1,000–2,000 embryos/ml. For images, sedimented embryos were concentrated in the center of the well by gentle rotation of the culture plate, and 200 μl aliquots containing several hundred embryos were used to take pictures (up to 20 images from different fields). Embryos selected for Figure 4 were representative of the population.
(§2) Stock solutions of compounds were prepared in DMSO at 50–250 mM concentration followed by a 10-fold dilution with 96% EtOH. This procedure enhanced the solubility of the test compounds in the salty seawater. Maximal tolerated concentrations of DMSO and EtOH in the assay were determined to be 0.05 and 1%, respectively. Higher concentrations of either DMSO (>0.1%) or EtOH (>1%) caused nonspecific alterations and retardation of the sea urchin embryo development independent of the treatment stage. Maximum solubility of compounds 15, 59, 69, and 71 was about 5–20 mM in seawater, since visible crystals formed at higher concentrations.
The effects were assessed after exposure of fertilized eggs (8–15 min post fertilization, 45–55 min before the first mitotic cycle completion) to 2-fold decreasing concentrations of the compound. Embryonic development was monitored until the beginning of active feeding at four-arm pluteus stage (33–36 h postfertilization). Developmental abnormalities were estimated quantitatively as minimal effective concentration (MEC), resulting in inhibition of archenteron elongation or skeletal spicule formation.

Arp2/3 [4] = conditions: introduction statement, no reference given; read-out: IC50 of inhibition of Arp2/3 activation; cited from earlier work
Arp2/3 [5] = biological target: T1, Arp2/3 (Bos taurus, UniProt A7MB62+P61157); test: Pyrene-actin polymerization assay; format: biochemical, bovine; conditions: 20 nM Arp2/3, 250 nM N-WASP VCA; for IC50: 1.5 μM actin (10% pyrenyl-labeled), read-out: IC50 of Arp2/3-mediated actin polymerization; for Arp2/3 inhibition reached at saturation: 1.5 μM actin
T1 construct: purchased Cytoskeleton, Inc
Description: Actin was purified from rabbit muscle and was pyrenyl-labeled ([Carlier et al., 1984]; [Malm, 1984]). Arp2/3 was from Cytoskeleton, Inc. VCA domain of N-WASP was purified as previously described ([Clainche et al., 2003]). Pyrene-actin polymerization assays were performed as previously ([Romero et al., 2007]). Briefly, CaATP-actin was converted into MgATP-actin in (5 mM Tris, 0.2 mM ATP, 0.1 mM CaCl2, 1 mM DTT, 1 mM MgCl2, and 0.2 mM EGTA, pH 7.6) and kept on ice for no more than 1 h. Actin polymerization was monitored in (5 mM Tris, 50 mM KCl, 0.2 mM ATP, 0.1 mM CaCl2, 1 mM DTT, 1 mM MgCl2, 0.2 mM EGTA, pH 7.6) in the presence of 2% DMSO alone or 2% DMSO containing the appropriated compound concentration. The increase in fluorescence of 10% pyrenyl-labeled actin was monitored using a Safas spectrofluorimeter (λexc = 366 nm, λem = 407 nm). The maximum rate of actin polymerization was derived from the maximum slope of the polymerization curve multiplied by [total polymer]/(RFUmax—RFUmin) [total polymer] is the total actin minus the critical concentration (0.1 μM) and RFU, Relative Fluorescence Unit. The maximum elongation rates of actin polymerization were plotted as a function of the concentration of the different compounds. For CK-666, 59, 69 and 71, curves were fitted with the following equation to determine the IC50. Mrate= Rmax−Rmax−Rmin/1+IC50/(Compound Conc.) where Mrate is the measured maximum rate of actin polymerization at a given compound concentration, Rmax is the maximum rate of actin polymerization with no compound, and Rmin is the maximum rate of actin polymerization at saturating concentration of compound.
The curve of compound 15 was fitted with a linear decay. The IC50 was determined at half inhibition of actin polymerization.

B16-F1 cells [6] = test: Lamellipodium formation in B16-F1 cells (cortactin immunofluorescence); format: cell-based, mouse
Description: Lyophilized compounds were resuspended with fresh DMSO from sealed vials (cell biology grade). Compounds, stored at +4°C, were used within a week. B16-F1 cells were seeded onto glass coverslips coated for 1 h with 25 μg/ml laminin (Sigma) in (50 mM Tris, 150 mM NaCl, pH 7.4). […] Cell were then processed for immunofluorescence.
Cells were fixed in 3.2% PFA on PBS, then quenched with 50 mM NH4Cl and permeabilised with 0.5% Triton X-100. After blocking in 2% BSA cells were incubated with antibodies (1–5 μg/ml for the primary, 5 μg/ml for the secondary). Total actin in cells was visualized by phalloidin staining. Nuclei were stained with 0.3 μg/ml DAPI (Roche). Coverslips were mounted in Dako Fluorescence Mounting Medium (Agilent). For immunofluorescence, ARPC2 rabbit polyclonal antibody (Millipore, 07–227), Cortactin mouse monoclonal 4F11 (Millipore, 05–180) were used. Secondary goat anti-mouse and anti-rabbit antibodies conjugated with Alexa Fluor 555 and 647 respectively were from Life Technologies. Phalloidin conjugated with Alexa Fluor 488 was from Tebu-bio.
as §1

B16-F1 cells [7] = test: Cell viability (MTS) of B16-F1 cells; format: cell-based, mouse; conditions: 100 μM, 4 h
Description: Cell viability was assessed using the CellTiter 96® AQueous One Solution Cell Proliferation kit (Promega) on a Multiscan Spectrum spectrophotometer (Thermo LifeSciences), with absorbance read at 490 nm.

[8] = Maximum solubility in seawater; format: physicochemical; conditions: saline or isotonic, kinetic from dmso stock, visible crystals formed at higher concentrations
Description: as §2

[9] = observed up to four-arm mid-pluteus stage
[10] = treated at zygote stage, monitored to four-arm pluteus

In the case of `Cc1[nH]c2ccccc2c1CCNC(=O)c1ccccc1F` [CK-666, 2-Fluoro-N-[2-(2-methyl-1H-indol-3-yl)ethyl]benzamide], the “Inhibition of wound healing” value (B16-F1 cells [1]; 100 µM) is given as “inhibits wound healing”, the IC50 (MCF10A cells) is given as 56.3 µM and the “Inhibition of migration of fish keratocytes” value (fish keratocytes) is given as “unable to inhibit the migration of fish keratocytes”. For the same compound, the “Effect on PMC migration and spiculogenesis” value (sea urchin embryos [2]) was “alters proper migration of PMC and formation of ventrolateral clusters with ensuing inhibition of spiculogenesis”, the Developmental phenotype (sea urchin embryos [3]; 100 μM, 22°C) was “Defective gastrulation” and the “Effect on archenteron elongation” value (sea urchin embryos [3]; [9]) was “inhibited elongation of the archenteron at approximately half-size”. For the same compound, the “Effect on primary mesenchyme cell (PMC) migration” value (sea urchin embryos [3]; [9]) was “altered PMC migration resulting in the lack of ventrolateral clusters and spicules”, the “Minimum effective concentration, Inhibition of Archenteron elongation” value (sea urchin embryos [3]; [10]) was 50 µM and the “Minimum effective concentration, Inhibition of Spicule formation” value (sea urchin embryos [3]; [10]) was 25 µM. For the same compound, the “Effect on cleavage and embryo spinning (antimitotic microtubule destabilizing effects)” value (sea urchin embryos [3]; up to 20–50 μM) was “did not affect cleavage and did not induce embryo spinning”, the IC50 (Arp2/3 [4]) was roughly 50 µM and the IC50 (Arp2/3 [5]) was 23 µM. For the same compound, the “Arp2/3 inhibition reached at saturation” value (Arp2/3 [5]) was 78% and the “Inhibition of lamellipodium formation” value (B16-F1 cells [6]; 100 μM, 1 h) was “blocked lamellipodium formation almost completely”.
For `Cc1[nH]c2ccc(F)cc2c1CCNC(=O)c1cc(S(=O)(=O)N(C)C)c(Cl)cc1Cl` [Compound 64, 2,4-Dichloro-5-[(dimethylamino)sulfonyl]-N-[2-(5-fluoro-2-methyl-1H-indol-3-yl)ethyl]benzamide], the “Outcome of EdU incorporation screen” value (MCF10A cells) was “scored positive”, the IC50 (MCF10A cells) was 6.66 µM and the “Toxicity to B16-F1 cells (viability, MTS)” value (B16-F1 cells [7]) was “reduced the cell population by half or more”.
For `Cc1[nH]c2c(C(F)(F)F)cccc2c1CCNC(=O)c1cc(S(=O)(=O)NC2CC2)c(Cl)cc1Cl` [Compound 71, 2,4-Dichloro-5-[(cyclopropylamino)sulfonyl]-N-{2-[2-methyl-7-(trifluoromethyl)-1H-indol-3-yl]ethyl}benzamide], the solubility [8] was 5 to 20 µM (≈ 2.67 to 10.7 µg/mL), the “Cell rounding and detachment in wound healing assay” value (B16-F1 cells [1]; 25 µM) was “still induced cell rounding” and the “Cell rounding and detachment in wound healing assay” value (B16-F1 cells [1]; 100 µM) was “induced cell rounding followed by detachment from the substrate”. The “Inhibition of cell migration (wound healing) compared with 100 µM CK-666” value (B16-F1 cells [1]; compound at 25 µM) was “inhibited cell migration even more effectively”, the “Outcome of EdU incorporation screen” value (MCF10A cells) was “scored positive” and the IC50 (MCF10A cells) was 3.58 µM. For the same compound, the Developmental abnormality (sea urchin embryos [3]; 5 μM) was “suppressed plutei growth”, the Developmental abnormality (sea urchin embryos [3]; 20 μM) was “defective gastrulation was observed” and the “Minimum effective concentration, Systemic Toxicity” value (sea urchin embryos [3]; [10]) was 5 µM. The IC50 (Arp2/3 [5]) was 539 µM, the “Arp2/3 inhibition reached at saturation” value (Arp2/3 [5]) was “saturation was not reached” and the “Dose-dependent inhibition of lamellipodium formation, potency relative to CK-666” value (B16-F1 cells [6]; dose-dependent assay (Figure 2D)) was “significantly more potent than CK-666”.
With `Cc1[nH]c2ccc(OC(F)(F)F)cc2c1CCNC(=O)c1ccc(S(=O)(=O)N(CCCl)CCCl)cc1` [Compound 52, 4-{[Bis(2-chloroethyl)amino]sulfonyl}-N-{2-[2-methyl-5-(trifluoromethoxy)-1H-indol-3-yl]ethyl}benzamide] the “Outcome of EdU incorporation screen” value (MCF10A cells) was “scored positive”, the IC50 (MCF10A cells) was 3.17 µM and the “Toxicity to B16-F1 cells (viability, MTS)” value (B16-F1 cells [7]) was “reduced the cell population by half or more”.
